Test results: the C3SDB collision cross section collection
Several values for one entry are separate records, joined by “and”; a condition that tells them apart may be missing. Identical values can stand only once.

Details: instrument: DT, stepped-field

| SMILES | collision cross section (N2) ([M+H]+) | collision cross section (N2) ([M+Na]+) | collision cross section (N2) ([M+K]+) | also measured |
| --- | --- | --- | --- | --- |
| CCC(C)[C@H](NC(=O)[C@H](CC(C)C)NC(=O)[C@H](CC(C)C)NC(=O)[C@H](CCC(=O)O)NC(=O)[C@H](CC(N)=O)NC(=O)[C@H](C)N)C(=O)N[C@@H](CC(N)=O)C(=O)N[C@H](C(=O)N[C@@H](CCCCN)C(=O)O)C(C)C (some centres undefined) [ANELLINVK] | 326.8 Å² | – | – | – |
| OCC1OC(OC2(CO)OC(CO)C(O)C2O)C(O)C(O)C1O (centres undefined) [(Hex)2] | – | – | – | collision cross section (N2) ([M+Na-H2O]+): 172.1 Å² |
| CCCCC/C=C\C/C=C\C/C=C\C/C=C\CCCCCC(=O)O[C@H](COC(=O)CCCCCCCCC/C=C\CCCCCCCC)COP(=O)(O)OC[C@H](N)C(=O)O [PS(42:5)] | – | 307 Å² | – | – |
| CC/C=C\C/C=C\C/C=C\C/C=C\C/C=C\C/C=C\CCC(=O)O[C@H](COC(=O)CCCCCCCCCCCCCC)COP(=O)([O-])OCC[N+](C)(C)C [PC(37:6)] | – | – | 298.2 Å² | – |
| CCC=CCC=CCC=CCC=CCC=CCC=CCC=CCC(=O)OC[C@H](COP(=O)(O)OC[C@H](N)C(=O)O)OC(=O)CC=CCC=CCC=CCC=CCC=CCC=CCC=CCC [PS(48:14)] | – | 312 Å² | 311 Å² | – |
| CC(C)[C@H](NC(=O)[C@@H](N)CC(=O)O)C(=O)N[C@@H](CS)C(=O)N[C@@H](CCCCN)C(=O)O [DVCK] | 204.7 Å² | – | – | – |
| CC/C=C\C/C=C\C/C=C\C/C=C\C/C=C\C/C=C\CCC(=O)OC[C@H](COP(=O)(O)OC[C@H](N)C(=O)O)OC(=O)CCCCCCC/C=C\CCCCCCCC [PS(40:7)] | – | 295.6 Å² | – | – |
| CCCCCC=CCC=CCC=CCC=CCC=CCC=CCC(=O)OC[C@H](COP(=O)(O)OC[C@H](N)C(=O)O)OC(=O)CC=CCC=CCC=CCC=CCC=CCC=CCCCCC [PS(48:12)] | – | – | 313.6 Å² | – |
| OCC1OC(OC2C(CO)OC(OC3C(CO)OC(O)C(O)C3O)C(O)C2O)C(O)C(O)C1O (centres undefined) [(Hex)3] | – | – | – | collision cross section (N2) ([M+Na-H2O]+): 204.9 Å² |
| CCC(C)C(NC(=O)C(N)Cc1c[nH]c2ccccc12)C(=O)NC(CCCN=C(N)N)C(=O)O (centres undefined) [WIR] | 215.4 Å² | – | – | – |
| CCCCC=CCC=CCC=CCC=CCC=CCC=CCC(=O)OC[C@H](COP(=O)(O)OC[C@H](N)C(=O)O)OC(=O)CC=CCC=CCC=CCC=CCC=CCC=CCCCC [PS(46:12)] | – | 309.5 Å² | – | – |
| CCCCC/C=C\C/C=C\C/C=C\C/C=C\CCCC(=O)O[C@H](COC(=O)CCCCCCCCCCCCCCCC)COP(=O)(O)OC[C@H](N)C(=O)O [PS(37:4)] | – | 295 Å² | – | – |
| CCCCC/C=C\C/C=C\CCCCCCCC(=O)O[C@H](COCCCCCCCCCCCCCCCC)COP(=O)(O)OCCN [PE(o34:2)] | – | 279.7 Å² | – | – |
| CCC(C)[C@H](N)C(=O)N[C@@H](Cc1c[nH]cn1)C(=O)N[C@@H](CCC(=O)O)C(=O)N[C@@H](Cc1ccc(O)cc1)C(=O)N[C@@H](CCCCN)C(=O)O (some centres undefined) [IHEYK] | 258.5 Å² | – | – | – |
| CCC(C)[C@H](NC(=O)[C@@H](NC(=O)[C@@H](N)CCSC)C(C)C)C(=O)N[C@@H](CCCNC(=N)N)C(=O)O (some centres undefined) [MVIR] | 228.7 Å² | – | – | – |
| CCCCC/C=C\C/C=C\C/C=C\C/C=C\CCCC(=O)OC[C@H](COP(=O)(O)OC[C@H](N)C(=O)O)OC(=O)CCCC/C=C\C/C=C\C/C=C\CCCCC [PS(38:7)] | – | 290.2 Å² | – | – |
| OCC1OC(OC2C(CO)OC(OC3C(CO)OC(OC4C(CO)OC(OC5C(CO)OC(OC6C(CO)OC(OC7C(CO)OC(OC8C(CO)OC(OC9C(CO)OC(OC%10C(CO)OC(OC%11C(CO)OC(O)C(O)C%11O)C(O)C%10O)C(O)C9O)C(O)C8O)C(O)C7O)C(O)C6O)C(O)C5O)C(O)C4O)C(O)C3O)C(O)C2O)C(O)C(O)C1O (centres undefined) [(Hex)11] | – | 384.6 Å² | 364.8 Å² and 367.1 Å² | collision cross section (N2) ([M+H-H2O]+): 379.1 Å²; collision cross section (N2) ([M+Li]+): 369.7 Å²; collision cross section (N2) ([M+Rb]+): 363.1 Å² and 369.7 Å² |
| CC/C=C\C/C=C\C/C=C\C/C=C\C/C=C\C/C=C\CCC(=O)O[C@H](COC(=O)CCCCCCC/C=C\CCCC)COP(=O)([O-])OCC[N+](C)(C)C [PC(36:7)] | – | 292.5 Å² | – | – |
| CC(=O)N[C@H]1[C@H](O[C@H]2[C@@H](O)[C@@H](CO)O[C@@H](O[C@@H]([C@H](O)[C@@H](O)C=O)[C@H](O)CO)[C@@H]2O)O[C@H](CO)[C@@H](O[C@@H]2O[C@@H](C)[C@@H](O)[C@@H](O)[C@@H]2O)[C@@H]1O[C@@H]1O[C@H](CO)[C@H](O)[C@H](O)[C@H]1O [Lacto-N-Fucopentaose II] | – | 271.1 Å² | 267.2 Å² | collision cross section (N2) ([M+Rb]+): 278.4 Å² |
| C[C@H](N)C(=O)N[C@@H](C)C(=O)NCC(=O)N[C@@H](Cc1c[nH]cn1)C(=O)N[C@@H](CC(=O)O)C(=O)NCC(=O)N[C@@H](CCCCN)C(=O)O [AAGHDGK] | 249 Å² | – | – | – |
| CC/C=C\C/C=C\C/C=C\C/C=C\C/C=C\C/C=C\CCC(=O)O[C@H](COC(=O)CCCCCCCCCCCC)COP(=O)([O-])OCC[N+](C)(C)C [PC(35:6)] | – | – | 291.8 Å² | – |

| SMILES | collision cross section (N2) ([M+H]+) | collision cross section (N2) ([M+Na]+) | collision cross section (N2) ([M+K]+) | also measured |
| --- | --- | --- | --- | --- |
| OC[C@H]1O[C@@H](O[C@H]2[C@H](O)[C@@H](O)[C@@H](O)O[C@@H]2CO)[C@H](O)[C@@H](O)[C@H]1O [Lactose] | – | 178.1 Å² | – | collision cross section (N2) ([M+Li]+): 186.3 Å² |
| N=C(N)NCCC[C@H](NC(=O)[C@H](CC(N)=O)NC(=O)[C@H](Cc1ccccc1)NC(=O)[C@@H](N)CC(N)=O)C(=O)O [NFNR] | 225 Å² | – | – | – |
| CC/C=C\C/C=C\C/C=C\C/C=C\C/C=C\CCCC(=O)O[C@H](COC(=O)CCCCCCC/C=C\CCCCCCCCC)COP(=O)([O-])OCC[N+](C)(C)C [PC(39:6)] | – | – | 303.4 Å² | – |
| N=C(N)NCCC[C@H](NC(=O)[C@H](CC(=O)O)NC(=O)[C@H](CO)NC(=O)[C@H](CO)NC(=O)[C@@H](N)Cc1ccccc1)C(=O)O [FSSDR] | 237.3 Å² | – | – | – |
| CCCCC=CCC=CCC=CCC=CCC=CCC=CCC=CCC=CCC(=O)N[C@@H](CO[C@@H]1O[C@H](CO)[C@@H](O)C(O)C1O)[C@H](O)CC=CCCCCCCCCCCCC (some centres undefined) [GlcCer(47:9)] | – | – | 316.4 Å² | – |
| CC(C)[C@H](NC(=O)[C@@H](N)CO)C(=O)N[C@@H](Cc1ccc(O)cc1)C(=O)N[C@@H](CC(=O)O)C(=O)N[C@@H](CO)C(=O)N[C@@H](CCCNC(=N)N)C(=O)O [SVYDSR] | 258.4 Å² | – | – | – |
| CC(C)C[C@H](NC(=O)[C@H](CC(=O)O)NC(=O)[C@@H](N)Cc1ccc(O)cc1)C(=O)N[C@@H](CC(=O)O)C(=O)N[C@@H](Cc1ccccc1)C(=O)N[C@@H](CCCCN)C(=O)O [YDLDFK] | 272.4 Å² | – | – | – |
| OC[C@H]1O[C@@H]2O[C@H]3[C@H](O)[C@@H](O)[C@@H](O[C@H]4[C@H](O)[C@@H](O)[C@@H](O[C@H]5[C@H](O)[C@@H](O)[C@@H](O[C@H]6[C@H](O)[C@@H](O)[C@@H](O[C@H]7[C@H](O)[C@@H](O)[C@@H](O[C@H]1[C@H](O)[C@H]2O)O[C@@H]7CO)O[C@@H]6CO)O[C@@H]5CO)O[C@@H]4CO)O[C@@H]3CO [Alpha-Cyclodextrin] | 285.2 Å² | 285.5 Å² | 287.7 Å² | – |
| CC=CCC=CCC=CCC=CCC=CCC=CCC(=O)OC[C@H](COP(=O)(O)OCC[N+](C)(C)C)OC(=O)CC=CCC=CCC=CCC=CCC=CCC=CC [PC(40:12)] | – | 300.6 Å² | – | – |
| CCCC/C=C\C/C=C\CCCCCCCC(=O)OC[C@H](COP(=O)(O)OCCN)OC(=O)CCCCC/C=C\C/C=C\C/C=C\C/C=C\CCCCC [PE(39:6)] | – | 286.4 Å² | – | – |
| CCC(C)[C@H](NC(=O)[C@@H](N)CCC(N)=O)C(=O)N[C@@H](CO)C(=O)N[C@H](C(=O)N[C@@H](CCCNC(=N)N)C(=O)O)C(C)C (some centres undefined) [QISVR] | 241.4 Å² | – | – | – |
| NCCCC[C@H](NC(=O)[C@H](CC(N)=O)NC(=O)[C@H](CCC(N)=O)NC(=O)[C@@H](N)Cc1ccccc1)C(=O)O [FQNK] | – | 243.9 Å² | – | – |
| CCC(C)[C@H](NC(=O)[C@H](CO)NC(=O)[C@@H](NC(=O)[C@@H](N)CO)C(C)CC)C(=O)N[C@H](C(=O)NCC(=O)N[C@@H](CO)C(=O)N[C@@H](Cc1ccc(O)cc1)C(=O)N[C@H](C(=O)NCC(=O)N[C@@H](CC(N)=O)C(=O)N[C@@H](CCCNC(=N)N)C(=O)O)C(C)C)C(C)C (some centres undefined) [SISIVGSYVGNR] | 349.1 Å² | – | – | – |
| CCCCCCC[N+](CCCCCCC)(CCCCCCC)CCCCCCC [TAA7] | – | – | – | collision cross section (N2) ([M]+): 236.4 Å² |
| CC(C)C[C@H](NC(=O)[C@H](CC(=O)O)NC(=O)[C@@H](NC(=O)[C@H](CC(C)C)NC(=O)[C@@H](N)C(C)C)C(C)C)C(=O)N[C@@H](CCC(=O)O)C(=O)N[C@@H](CCCNC(=N)N)C(=O)O [VLVDLER] | 285.7 Å² | – | – | – |
| CCCCCCCCC/C=C\CCCCCCCC(=O)O[C@H](COC(=O)CCCCCCCCCCCCCCCCC)COP(=O)(O)OCCN [PE(37:1)] | – | 292.2 Å² | 295 Å² | – |
| CCC(C)[C@H](N)C(=O)NCC(=O)N[C@@H](CO)C(=O)N[C@@H](CCC(=O)O)C(=O)N[C@H](C(=O)N[C@@H](Cc1ccc(O)cc1)C(=O)N[C@@H](Cc1c[nH]cn1)C(=O)N[C@@H](CC(N)=O)C(=O)N[C@@H](CC(C)C)C(=O)N[C@@H](CCCCN)C(=O)O)C(C)C (some centres undefined) [IGSEVYHNLK] | 348.4 Å² | – | – | – |
| CCCCC/C=C\C/C=C\CCCCCCCCCC(=O)O[C@H](COC(=O)CCCCCCC/C=C\CCCCCCC)COP(=O)(O)OCCN [PE(37:3)] | – | 286.2 Å² | 286.5 Å² | – |
| CCCCCCCCCCCCCCCCCCCC(=O)O[C@H](COC(=O)CCCCCCCCCCCCCCCC)COP(=O)(O)OCCN [PE(37:0)] | – | – | 297.8 Å² | – |
| CCCCCCCC=CCC=CCC=CCC=CCC=CCC(=O)OC[C@H](COP(=O)(O)OC[C@H](N)C(=O)O)OC(=O)CC=CCC=CCC=CCC=CCC=CCCCCCCC [PS(46:10)] | – | 309.2 Å² | 306.3 Å² | – |
